The source of these data is patent publication US20010044445A1, “AZOLE INHIBITORS OF CYTOKINE PRODUCTION” (priority 1999, published 2001).

Series [1] relates to Human peripheral blood mononuclear cells. Put plainly: Human Concanavalin-A Proliferation Assay (Con HU Assay). The series is classed as cell-based. The conditions noted are these: concanavalin-A stimulated human PBMC; for inhibition at 1 µM / inhibition at 10 µM / inhibition at 100 µM: 72 h, read-out: % Inhibition of proliferation (at concentrations of 1,10, or 100 μm); for inhibition at 1 µM / inhibition at 10 µM / inhibition at 100 µM / % Inhibition of proliferation (at concentrations of 1,10, or 100 μm): 3 days; for inhibition at 10 µM: concentration 10 μm (in parentheses in the cell); for IC50: tritiated thymidine. In short, it runs like this: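 Proliferation read as tritiated thymidine uptake (0.5 μCi/well, 6 h pulse on day 3) in human PBMC cultured 3 days with 2.5 μg/ml (final) concanavalin-A. Cells, 50,000 per well in supplemented RPMI 1640 with 10% FBS, received compound 15 min before mitogen.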

[2] abbreviates: Homo sapiens, PBMC, concentration 1 μm (in parentheses in the cell).
[3] abbreviates: Homo sapiens, PBMC, concentration 100 μm (in parentheses in the cell).
Setting [4] is: concentration 1 μm (in parentheses in the cell).

As a reminder, the melting point is the temperature of the solid-liquid transition. In turn, `O=C(Nc1cccc(-n2nc(C(F)(F)F)cc2C(F)(F)F)c1)c1c(F)cccc1F` [Example 224, N-[3-[3,5-bis(trifluoromethyl)-1H-pyrazol-1-yl]phenyl]-2,6-difluorobenzamide] returned a melting point of 142 to 143 °C. In addition, the inhibition at 1 µM in series [1] (setting [2]) stood at 2%. As usually defined, the IC50 is the concentration that inhibits the measured activity by half. For the compound `COc1cccc(O)c1C(=O)Nc1ccc(-n2nc(C(F)(F)F)cc2C(F)(F)F)cc1` [Example 182, N-[4-[3,5-bis(trifluoromethyl)-1H-pyrazol-1-yl]phenyl]-2-hydroxy-6-methoxybenzamide], the melting point lay within 114 to 116 °C. In series [1] (Homo sapiens, PBMC), the inhibition at 10 µM was 83% and the IC50 was 4670 nM.

The compound `Cc1nnsc1C(=O)Nc1ccc(-n2nc(-c3nccs3)cc2C#N)cc1` [Example 340, N-(4-(5-cyano-3-(1,3-thiazol-2-yl)-1H-pyrazol-1-yl)phenyl)-4-methyl-1,2,3-thiadiazole-5-carboxamide] registered a melting point of 230 °C. The compound also showed an IC50 in series [1] (Homo sapiens, PBMC) of 251 nM. In turn, `O=C(Nc1ccc(-n2nc(C(F)(F)F)cc2C(F)(F)F)cc1)c1ccoc1` [Example 14, N-[4-[3,5-bis(trifluoromethyl)-1H-pyrazol-1-yl]phenyl]-3-furancarboxamide] came in with a melting point of 206 to 207 °C. In series [1] (setting [3]), the inhibition at 100 µM was found to be 97%. This compound showed an IC50 in series [1] (Homo sapiens, PBMC) of 538 nM.

The compound `O=C(Nc1ccc(-n2nc(C(F)(F)F)cc2C(F)(F)F)cc1)c1nc(Cl)ccc1Cl` [Example 167, N-[4-[3,5-bis(trifluoromethyl)-1H-pyrazol-1-yl]phenyl]-3,6-dichloro-2-pyridinecarboxamide] showed a melting point of 118 to 119 °C. Also, the inhibition at 100 µM in series [1] (setting [3]) came out at 100%. This compound had an IC50 in series [1] (Homo sapiens, PBMC) of 279 nM. `O=C(Nc1ccc(-n2nc(C(F)(F)F)cc2C(F)(F)F)cc1)c1ccno1` [Example 240, N-[4-[3,5-bis(trifluoromethyl)-1H-pyrazol-1-yl]phenyl]-5-isoxazolecarboxamide] showed a melting point of 202 to 204 °C. Also, in series [1] (Homo sapiens, PBMC), the inhibition at 10 µM is 84% and the IC50 is 507 nM.

The compound `O=C(Nc1ccc(-n2nc(C(F)(F)F)cc2C(F)(F)F)cc1)c1c(F)c(F)cc(F)c1F` [Example 234, N-[4-[3,5-bis(trifluoromethyl)-1H-pyrazol-1-yl]phenyl]-2,3,5,6-tetrafluorobenzamide] returned a melting point of 235 to 237 °C. Also, in series [1] (Homo sapiens, PBMC), the inhibition at 10 µM is 99% and the IC50 is 61 nM. `Fc1ccc(NCc2ccc(-n3nc(C(F)(F)F)cc3C(F)(F)F)cc2)cc1` [Example 94, 4-[3,5-Bis(trifluoromethyl)-1H-pyrazol-1-yl]-N-(4-fluorophenyl)benzenemethanamine]: the melting point was 102 to 103 °C. In series [1] (Homo sapiens, PBMC), the inhibition at 10 µM amounted to 3%.

On to `O=C(Nc1ccc(-n2nc(C(F)(F)F)cc2C(F)(F)F)cc1)c1ccc(F)c([N+](=O)[O-])c1` [Example 200, N-[4-[3,5-bis(trifluoromethyl)-1H-pyrazol-1-yl]phenyl]-4-fluoro-3-nitrobenzamide], for which the melting point fell in the range of 186 to 187 °C. The inhibition at 1 µM in series [1] (setting [2]) worked out at 26%.

In the case of `O=C(Nc1ccc(-n2nc(C(F)(F)F)cc2C(F)(F)F)cc1)C1CCCC1` [Example 123, N-[4-[3,5-bis(trifluoromethyl)-1H-pyrazol-1-yl]phenyl]cyclopentanecarboxmide], in series [1], 256 nM corresponded to half-maximal inhibition (IC50). For the same compound, in series [1] (concentration 100 μm (in parentheses in the cell)), the “% Inhibition of proliferation (at concentrations of 1,10, or 100 μm)” value (“% Inhibition of proliferation” below) is 99(100) %. With `Nc1cc(NC(=O)c2ccccc2F)ccc1-n1nc(C(F)(F)F)cc1C(F)(F)F` [Example 298, N-{3-amino-4-[3,5-bis(trifluoromethyl)-1H-pyrazol-1-yl]phenyl}-2-fluorobenzamide], 332 nM corresponded to half-maximal inhibition in series [1] (Homo sapiens, PBMC) (IC50). On to `N#Cc1cc(C2CCCO2)nn1-c1ccc(NC(=O)c2ccncc2F)cc1` (stereo not shown) [Example 357, N-(4-(5-cyano-3-tetrahydro-2-furanyl-1H-pyrazol-1-yl)phenyl)-3-fluoroisonicotinamide], for which, in series [1] (Homo sapiens, PBMC), the IC50 came to 1860 nM. With `CC(C)(C)OC(=O)NCCCC(=O)Nc1ccc(-n2nc(C(F)(F)F)cc2C(F)(F)F)cc1` [Example 173, 1,1-Dimethylethyl [[4-[4-[3,5-bis(trifluoromethyl)-1H-pyrazol-1-yl]phenyl]amino]-4-oxobutyl]carbamate], the “% Inhibition of proliferation” value in series [1] (setting [4]) is 28(1) %.

`CC1CCC(C(=O)Nc2ccc(-n3nc(C(F)(F)F)cc3C(F)(F)F)cc2)CC1` (stereo not shown) [Example 54, N-[4-[3,5-bis(trifluoromethyl)-1H-pyrazol-1-yl]phenyl]-4-methylcyclohexanecarboxamide]: the inhibition at 1 µM in series [1] (setting [2]) worked out at 12%. Compound `CCOc1cc(C(F)(F)F)nn1-c1ccc(NC(=O)c2cccnc2F)cc1` [Example 319, N-(4-(5-ethoxy-3-(trifluoromethyl)-1H-pyrazol-1-yl)phenyl)-2-fluoronicotinamide] yielded an IC50 in series [1] (Homo sapiens, PBMC) of 219 nM. Still for that read-out and setting: in the case of `O=C(Nc1ccc(-n2nc(C(F)(F)F)cc2Cl)cc1)c1cccnc1F` [Example 325, N-(4-(5-chloro-3-(trifluoromethyl)-1H-pyrazol-1-yl)phenyl)-2-fluoronicotinamide] it was 172 nM. On to `O=C(CCCC[C@@H]1SC[C@@H]2NC(=O)N[C@@H]21)Nc1ccc(-n2nc(C(F)(F)F)cc2C(F)(F)F)cc1` [Example 23, 3a(S)-(3aα,4β,6aα)-N-[4-[3,5-bis(trifluoromethyl)-1H-pyrazol-1-yl]phenyl]hexahydro-2-oxo-1H-thieno[3,4-d]limidazole-4-pentanamide], for which the “% Inhibition of proliferation” value in series [1] (setting [4]) is 4(1) %. In series [1] (Homo sapiens, PBMC), `COc1cc(C(F)(F)F)nn1-c1ccc(NC(=O)c2ccncc2)cc1` [Example 312, N-(4-(5-methoxy-3-(trifluoromethyl)-1H-pyrazol-1-yl)phenyl)isonicotinamide] gave an IC50 of 298 nM. For the compound `Cc1ccc([N+](=O)[O-])cc1NC(=O)Nc1ccc(-n2nc(C(F)(F)F)cc2C(F)(F)F)cc1` [Example 50], in series [1] (setting [4]), the “% Inhibition of proliferation” value was 2(1) %. In turn, `Cn1ccc(-c2cc(OC(F)F)n(-c3ccc(NC(=O)c4ccncc4F)cc3)n2)c1` [Example 358, N-(4-(5-(difluoromethoxy)-3-(1-methyl-1H-pyrrol-3-yl)-1H-pyrazol-1-yl)phenyl)-3-fluoroisonicotinamide] displayed an IC50 in series [1] (Homo sapiens, PBMC) of 203 nM.

For `O=C(Nc1ccc(-n2nc(-c3cccnc3)cc2[N+](=O)[O-])cc1)c1ccncc1F` [Example 334, 3-fluoro-N-{4-[5-nitro-3-(3-pyridinyl)-1H-pyrazol-1-yl]phenyl}isonicotinamide], the IC50 in series [1] (Homo sapiens, PBMC) turned out to be 297 nM. As to `Cc1nnsc1C(=O)Nc1ccc(-n2nc(-c3ccoc3)cc2Cl)cc1` [Example 355, N-(4-(5-chloro-3-(3-furyl)-1H-pyrazol-1-yl)phenyl)-4-methyl-1,2,3-thiadiazole-5-carboxamide], the IC50 in series [1] (Homo sapiens, PBMC) worked out at 282 nM. Consider `O=C(Nc1ccc(-n2nc(-c3cccnc3)cc2C(F)F)cc1)c1ccncc1F` [Example 329, N-(4-(5-(difluoromethyl)-3-(3-pyridinyl)-1H-pyrazol-1-yl)phenyl)-3-fluoroisonicotinamide], for which the IC50 in series [1] (Homo sapiens, PBMC) worked out at 303 nM. For `N#Cc1cc(C(F)(F)F)nn1-c1ccc(NC(=O)c2cc(F)cc(F)c2F)cc1` [Example 307, N-(4-(5-cyano-3-(trifluoromethyl)-1H-pyrazol-1-yl)phenyl)-2,3,5-trifluorobenzamide], it took 79 nM to reach half-maximal inhibition in series [1] (Homo sapiens, PBMC) (IC50). The compound `COC(=O)c1cc(NC(=O)c2ccccc2F)ccc1-n1nc(C(F)(F)F)cc1C(F)(F)F` [Example 293, methyl 2-(3,5-bis(trifluoromethyl)-1H-pyrazol-1-yl)-5-((2-fluorobenzoyl)amino)benzoate] had an IC50 in series [1] (Homo sapiens, PBMC) of 409 nM.

Turning to `O=C(Nc1ccc(-n2nc(C(F)(F)F)cc2C(F)(F)F)cc1)c1ccccn1` [Example 121, N-[4-[3,5-bis(trifluoromethyl)-1H-pyrazol-1-yl]phenyl]-2-pyridinecarboxamide], in series [1] (setting [3]), the inhibition at 100 µM is 53%. Moreover, the IC50 in series [1] (Homo sapiens, PBMC) amounted to 10600 nM. Consider `CN(C(=O)c1ccccc1Cl)c1ccc(-n2nc(C(F)(F)F)cc2C(F)(F)F)cc1` [Example 80, N-[4-[3,5-bis(trifluoromethyl)-1H-pyrazol-1-yl]phenyl]-2-chloro-N-methylbenzamide], for which, in series [1] (setting [2]), the inhibition at 1 µM stood at 43%. Consider `O=S(=O)(Nc1ccc(-n2nc(C(F)(F)F)cc2C(F)(F)F)cc1)c1cc(F)cc(F)c1` [Example 5, N-[4-[3,5-bis(trifluoromethyl)-1H-pyrazol-1-yl]phenyl]-3,5-difluorobenzenesulfonamide], for which, in series [1] (setting [3]), the inhibition at 100 µM is 100%. Moreover, the IC50 in series [1] (Homo sapiens, PBMC) stood at 33700 nM. On to `COC(=O)c1cc(NC(=O)c2cc(Br)ccc2Cl)ccc1-n1nc(C(F)(F)F)cc1C(F)(F)F` [Example 274, methyl 2-[3,5-bis(trifluoromethyl)-1H-pyrazol-1-yl]-5-[(5-bromo-2-chlorobenzoyl)amino]benzoate], for which, in series [1] (Homo sapiens, PBMC), the inhibition at 10 µM is 100% and the IC50 was 2180 nM.

Take `Cc1cc(Br)ccc1NC(=O)Nc1ccc(-n2nc(C(F)(F)F)cc2C(F)(F)F)cc1` [Example 77, N-[4-[3,5-bis(trifluoromethyl)-1H-pyrazol-1-yl]phenyl]-N′-(4-bromo-2-methylphenyl)urea]: in series [1] (Homo sapiens, PBMC), the inhibition at 10 µM was 93% and the IC50 was determined as 655 nM.
